# According to patent US20240415804A1, “METHOD OF TREATING PANCREATIC CANCER” (University of South Florida, priority 2022, published 2024):
# System: SHIP-1
# Experiment: SHIP-1 gene and protein expression in OPC mice
# Assay type: in vivo, mouse
# Details: API 25 mg/kg IP 3 times per week for 2-3 weeks, vs OPC mice
# Description: The inventors reported recently that API reduced tumor growth in an orthotopic (O) mouse model of PC (OPC)^12, which is a more clinically relevant model^69. To investigate if API targets miR-155 and regulates SHIP-1 expression in the BM and tumor of an OPC mouse model, OPC mice were treated with API at a dose of 25 mg/kg (IP) 3 times per week for 2-3 weeks.
# To generate orthotopic pancreatic models (OPC), anesthetized (1.5-3% isoflurane) mice were injected in the neck of the pancreas, via laparotomy^59, with sterile PBS (CTRL) or 1.25×10^4 Panc02 cells (OPC), in sterile 1×PBS. […]
# Isolation of total RNA from digested pancreatic tumors and BM cells was performed using a RNeasy Mini Kit (Qiagen), according to the manufacturer's instructions. RT-PCR of quantified and normalized total RNA was performed using a High-Capacity cDNA RT Kit with an RNase Inhibitor (Applied Biosystems), according to the manufacturer's instructions. […]
# Single-cell suspensions of BM, digested pancreatic tumors cells and UN-KC-6141 cells treated with API (40 μM) were lysed with radioimmunoprecipitation buffer (Sigma-Aldrich), quantified with a BCA Protein Assay kit (Thermo Fisher Scientific, Waltham, MA, USA), resolved by SDS-PAGE (Thermo Fisher Scientific) and transferred onto a nitrocellulose membrane as previously described. […]
structure (smiles),measurement,value
"O=c1cc(-c2ccc(O)cc2)oc2cc(O)cc(O)c12 [API, 40,5,7-Trihydroxyflavone, 5,7-Dihydroxy-2-(4-hydroxyphenyl)-4-benzopyrone]",SHIP-1 gene expression in BM,significantly increased
same,SHIP-1 protein expression in BM,significantly increased
